Measured values reported in patent US7541366B2, “Pyrrolo[3,2-c]pyridine derivatives and processes for the preparation thereof” (YUHAN Corporation, priority 2004, dated 2009).

Columns and labels:
hog gastric H+/K+-ATPase = molecular target: T1, hog gastric H+/K+-ATPase (Sus scrofa, UniProt P19156); assay: Reversible inhibition of hog gastric H+/K+-ATPase (Washout method); assay type: biochemical
T1 construct: from tissue; host or cells: hog gastric fundic mucosa; gastric vesicles/microsomes, lyophilized
Procedure: Gastric vesicles were prepared from hog fundic mucosa using the method of Saccomani et al. (Saccomani G, Stewart H B, Shqw D, Lewin M and Sachs G, Characterization of gastric mucosal membranes. IX. Fraction and purification of K-ATPase-containing vesicles by zonal centrifugation and free-flow electrophoresis techinque. Biochem. Biophy. Acta.(BBA)—Biomembranes 465, 311-330, 1977.). This material was lyophilized and stored at −70° C. The protein content of gastric vesicles was determined by the Bradford method using bovine serum albumin as a standard (Bradford M M, A rapid and sensitive method for the quantitation of microgram quantities of protein utilizing the principle of protein-dye binding. Anal Biochem. 72, 248-254, 1976).
Activity of H^+/K^+-ATPase in hog microsome (lyophilized vesicle) was measured by the inorganic phosphate released from ATP using an one-step colorimetric detection method at the concentration at which the test compounds have 50% inhibition of the proton pump (Chan K M, Delfert D, and Junger K D, A direct colorimetric assay for Ca^2+-stimulated ATPase activity. Anal Biochem, 157, 375-380, 1986). […]

[1] = molecular target: T2, proton pump (H+/K+-ATPase) (Sus scrofa, UniProt P19156); assay: Inhibitory effects on proton pump (H+/K+-ATPase) activity; assay type: biochemical; details: hog gastric vesicles, K+ stimulated H+/K+-ATPase activity, Pi at 620 nm, 30 minutes at 37° C.
T2 construct: used as an enzyme source of the in vitro enzyme reaction assay of proton pump; from tissue; host or cells: hog gastric fundic mucosa; membrane vesicles, lyophilized
Procedure: 1-1. Preparation of gastric proton pump vesicles
The hog fundic regions containing parietal and peptic cells were scraped with slide-glass. The collected cells were suspended in 10 ml of 0.25M sucrose buffer and homogenized using a tight-fitting Teflon-glass homogenizer. The homogenate was centrifuged for 35 min at 8,000 rpm and the pellet was discarded. The supernatant was further centrifuged for 75 min at 25,000 rpm. The resulting pellets were re-suspended in the sucrose buffer (10 ml), and then the suspension was laid onto discontinuous density gradients consisting of 0.25M sucrose buffer and isolation medium containing 9% Ficoll (w/w). After being centrifuged for 3 hours and 15 minutes at 100,000×g, the material at the interface of sucrose buffer and Ficoll solution was collected and then centrifuged for 40 minutes at 100,000×g. The resulting pellets were re-suspended in 1 ml of 5 mM Hepes/Tris buffer (pH 6.1). This material was lyophilized and stored at −70° C. and used as an enzyme source of the in vitro enzyme reaction assay of proton pump.
1-2. Measurement of inhibitory effects on proton pump (H^+/K^+-ATPase) activity
The inhibitory effects of the compounds of the present invention against proton pump activity were evaluated in 96-well plate. In this assay, the K^+specific H^+/K^+-ATPase activity was calculated based on the difference between the activity of H^+/K^30 -ATPase activity with K^30 and without K^30 ion. In 96-well plate, 1% dimethylsulfoxide (DMSO) in buffer was added to negative and positive control groups and the diluted compounds of the present invention in buffer were added to test group. All assays were performed in 100μl reaction volume at room temperature, and the hog gastric vesicle was kept in ice before use. At the beginning of the reaction, 10μl of reaction buffer containing 1% DMSO was added to the negative and positive control groups and to reaction buffer each concentration of compounds in the test group. Then lyophilized vesicle in 5mM Pipes/Tris buffer (pH 6.1) was pre-incubated in the presence of various concentrations of test compounds. After a 5 minute incubation, negative and positive buffers were respectively added to the previous reaction mixture. As the substrate, ATP was added to the reaction buffer, and incubated for 30 minutes at 37° C. Enzymatic activity was stopped by the addition of colorimetric reagent (2X malachite green, 1X ammonium molybdate, X polyvinyl alcohol, 2X H2O) and the amount of mono phosphate (Pi) in the reaction was measured at 620nm using the micro plate reader (Genios Pro, TECAN). The difference between the Pi production with K^+and without K^+is taken as K^+stimulated H^+/K^+-ATPase activity. The IC50s of test compounds were calculated from each % inhibition value of compounds using the method of Litchfield-Wilcoxon (J. Pharmacol. Exp. Ther. (1949) 96, 99).

[2] = tested on: basal gastric acid secretion; assay: Inhibitory effects on basal gastric acid secretion in pylorus-ligated rats (Shay's rat model); assay type: in vivo, Sprague Dawley (SD) rats; details: oral, one hour before pylorus ligation, total acid output 5 hours after ligation, male SD rats
Procedure: Test Example 2. Inhibitory effects on basal gastric acid secretion in pylorus-ligated rats. Inhibitory effects of the compounds of the present invention on basal gastric acid secretion were performed according to Shay's rat model (Shay, H., et al., 1945, gastroenterology, 5, 43-61). Male Sprague Dawley (SD) rats (200±10 g body weight) were divided into 3 groups (n=5) and fasted for 24 hours with free access to water. Control group was orally administered with 0.5% methylcellulose alone and the other groups were orally administered with test compounds suspended in 0.5% methyl-cellulose solution at doses of 1, 3 and 10 mg/kg/5 ml one hour before pylorus ligation. Under ether anesthesia, the abdomens of the rats were incised and then the pylorus was ligated. 5 hours after ligation, the animals were sacrificed, and the gastric contents were collected. The collected contents were centrifuged at 1,000×g for 10 minutes to obtain the gastric juice. Total acid output was measured by 0.01N NaOH volume (ueq/ml) for automatic titration of the gastric juice to pH 7.0 and the ED50s of test compounds were calculated using the Litchfield-Wilcoxon method. % inhibitory activity was calculated from the following equation and the results are shown in Table 2. %inhibitory activity of test compound=(total acid output of control group−total acid output of the group treated with test compounds)/total acid output of control group X 100

T2 sequence (P19156 whole entry): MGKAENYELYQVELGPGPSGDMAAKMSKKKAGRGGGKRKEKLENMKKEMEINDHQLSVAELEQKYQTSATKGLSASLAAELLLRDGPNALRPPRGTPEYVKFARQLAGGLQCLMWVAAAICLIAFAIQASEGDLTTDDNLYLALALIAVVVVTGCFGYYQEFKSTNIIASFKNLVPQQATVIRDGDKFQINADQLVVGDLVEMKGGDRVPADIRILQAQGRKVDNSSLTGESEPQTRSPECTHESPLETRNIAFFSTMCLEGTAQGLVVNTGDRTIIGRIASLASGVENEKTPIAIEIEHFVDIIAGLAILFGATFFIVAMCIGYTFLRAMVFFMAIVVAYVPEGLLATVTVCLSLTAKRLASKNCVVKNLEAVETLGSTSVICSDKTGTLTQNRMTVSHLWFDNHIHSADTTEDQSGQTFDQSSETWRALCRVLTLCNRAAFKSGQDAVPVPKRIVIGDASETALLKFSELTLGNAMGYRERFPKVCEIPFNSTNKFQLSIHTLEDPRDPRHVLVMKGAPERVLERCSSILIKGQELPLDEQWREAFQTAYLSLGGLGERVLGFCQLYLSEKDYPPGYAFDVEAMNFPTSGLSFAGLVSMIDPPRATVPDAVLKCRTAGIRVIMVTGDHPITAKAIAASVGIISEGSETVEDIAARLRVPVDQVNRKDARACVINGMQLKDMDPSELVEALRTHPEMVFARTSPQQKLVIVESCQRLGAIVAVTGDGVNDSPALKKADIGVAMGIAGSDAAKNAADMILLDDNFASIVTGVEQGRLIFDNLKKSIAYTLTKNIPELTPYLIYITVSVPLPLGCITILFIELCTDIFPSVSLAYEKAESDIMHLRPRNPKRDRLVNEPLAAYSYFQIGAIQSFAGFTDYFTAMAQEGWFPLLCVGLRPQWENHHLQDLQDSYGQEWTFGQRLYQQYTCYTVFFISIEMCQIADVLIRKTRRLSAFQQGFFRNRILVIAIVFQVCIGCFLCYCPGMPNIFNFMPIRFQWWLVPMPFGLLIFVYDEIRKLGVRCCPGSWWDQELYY
T2 sequence (P18434 whole entry partner): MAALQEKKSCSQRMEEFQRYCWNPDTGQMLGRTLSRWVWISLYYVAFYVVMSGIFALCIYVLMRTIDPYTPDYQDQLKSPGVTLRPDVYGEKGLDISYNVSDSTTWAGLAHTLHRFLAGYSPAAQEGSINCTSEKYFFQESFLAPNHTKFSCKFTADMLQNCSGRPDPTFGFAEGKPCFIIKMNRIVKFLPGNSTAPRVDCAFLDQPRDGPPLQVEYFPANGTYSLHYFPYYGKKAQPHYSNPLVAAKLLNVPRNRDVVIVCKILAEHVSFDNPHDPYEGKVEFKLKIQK
T1 sequence (P19156 whole entry): as the sequence (P19156 whole entry) above
T1 sequence (P18434 whole entry partner): as the sequence (P18434 whole entry partner) above

SMILES	inhibition of H+/K+-ATPase activity after washout (hog gastric H+/K+-ATPase; after washout, compared with non-treated group)	inhibition of H+/K+-ATPase activity before washout (hog gastric H+/K+-ATPase; before washout, test compound at the concentration at which it has 50% inhibition)	IC50 [1]	ED50 [2]
CCCn1c(C)c(C)c2cncc(N3CCc4ccccc4C3)c21.Cl [Example 38, 2-(2,3-dimethyl-1-propyl-1H-pyrrolo[3,2-c]pyridin-7-yl)-1,2,3,4-tetrahydroisoquinoline hydrochloride]	did not inhibit	50%	190 nM	–
CCCn1c(C)c(C)c2cncc(OCc3ccc(F)cc3)c21.Cl [Example 16, 7-(4-fluorobenzyloxy)-2,3-dimethyl-1-propyl-1H-pyrrolo[3,2-c]pyridine hydrochloride]	–	–	10 nM	1.8 mg/kg
Cc1c(C)n(Cc2ccccc2)c2c(OCc3ccc(F)cc3)cncc12.Cl [Example 12, 1-benzyl-7-(4-fluorobenzyloxy)-2,3-dimethyl-1H-pyrrolo[3,2-c]pyridine hydrochloride]	–	–	10 nM	3.3 mg/kg
COCCn1c(C)c(C)c2cncc(OCc3ccc(F)cc3)c21.Cl [Example 17, 7-(4-fluorobenzyloxy)-1-(2-methoxyethyl)-2,3-dimethyl-1H-pyrrolo[3,2-c]pyridine hydrochloride]	–	–	10 nM	3.3 mg/kg
